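Protocol summary: plate cells (96-well), add compound at 5 concentrations, incubate 48 h, interpolate endpoints linearly. TGI: total growth inhibition.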 Bounds are passed on as bounds.

The subject of one assay is HOP-92 NSCLC. Nature of the assay: inhibition of tumour cell growth, NCI panel, 48 h.
The compound `CC(NNC(=O)c1ccncc1)c1ccc(F)cc1` (stereo not drawn) yielded a TGI of over 100 µM.

`Cn1c(=S)[nH]c2sc3c(c2c1=O)CCSC3` registered a TGI of over 100 µM.

As for `O=C(/C=C/c1ccccc1)/C=N/N1C(=S)N(c2ccccc2)C(=Nc2ccccc2)C1=Nc1ccccc1`, the TGI was over 100 µM.

The test system of a further assay is HS 578T breast. Nature of the assay: inhibition of tumour cell growth, NCI panel, 48 h.
For the compound `CCCCCCCCCCCC(=O)Oc1c(Cl)cc(Cl)c(OC(=O)C(=O)Oc2c(Cl)cc(Cl)c(OC(=O)CCCCCCCCCCC)c2Cl)c1Cl`, the TGI was over 100 µM.

As for `CC(NNC(=O)c1ccncc1)c1ccc(F)cc1` (stereo not drawn), the TGI is over 100 µM.

Take `Cn1c(=S)[nH]c2sc3c(c2c1=O)CCSC3`: the TGI is over 100 µM.

As for `O=C(/C=C/c1ccccc1)/C=N/N1C(=S)N(c2ccccc2)C(=Nc2ccccc2)C1=Nc1ccccc1`, the TGI is over 100 µM.

The test system of a further assay is HT29 colon. The assay can be described thus: inhibition of tumour cell growth, NCI panel, 48 h.
With `CCCCCCCCCCCC(=O)Oc1c(Cl)cc(Cl)c(OC(=O)C(=O)Oc2c(Cl)cc(Cl)c(OC(=O)CCCCCCCCCCC)c2Cl)c1Cl`, the TGI is over 100 µM.

The compound `CC(NNC(=O)c1ccncc1)c1ccc(F)cc1` (stereo not drawn) returned a TGI of over 100 µM.

The compound `Cn1c(=S)[nH]c2sc3c(c2c1=O)CCSC3` displayed a TGI of over 100 µM.

Compound `O=C(/C=C/c1ccccc1)/C=N/N1C(=S)N(c2ccccc2)C(=Nc2ccccc2)C1=Nc1ccccc1` returned a TGI of over 100 µM.

The test system of the next assay is IGROV1 ovarian. The assay can be described thus: inhibition of tumour cell growth, NCI panel, 48 h.
Compound `CCCCCCCCCCCC(=O)Oc1c(Cl)cc(Cl)c(OC(=O)C(=O)Oc2c(Cl)cc(Cl)c(OC(=O)CCCCCCCCCCC)c2Cl)c1Cl` gave a TGI of over 100 µM.

`CC(NNC(=O)c1ccncc1)c1ccc(F)cc1` (stereo not drawn) registered a TGI of over 100 µM.

`Cn1c(=S)[nH]c2sc3c(c2c1=O)CCSC3`: the TGI is over 100 µM.

`O=C(/C=C/c1ccccc1)/C=N/N1C(=S)N(c2ccccc2)C(=Nc2ccccc2)C1=Nc1ccccc1`: the TGI is over 100 µM.

In another assay the test system is K-562 leukemia. Nature of the assay: inhibition of tumour cell growth, NCI panel, 48 h.
`CC(NNC(=O)c1ccncc1)c1ccc(F)cc1` (stereo not drawn) showed a TGI of over 100 µM.

Compound `Cn1c(=S)[nH]c2sc3c(c2c1=O)CCSC3` had a TGI of over 100 µM.

Compound `O=C(/C=C/c1ccccc1)/C=N/N1C(=S)N(c2ccccc2)C(=Nc2ccccc2)C1=Nc1ccccc1` had a TGI of over 100 µM.

In a further assay the test system is KM12 colon. Nature of the assay: inhibition of tumour cell growth, NCI panel, 48 h.
As for `CCCCCCCCCCCC(=O)Oc1c(Cl)cc(Cl)c(OC(=O)C(=O)Oc2c(Cl)cc(Cl)c(OC(=O)CCCCCCCCCCC)c2Cl)c1Cl`, the TGI was over 100 µM.

For `CC(NNC(=O)c1ccncc1)c1ccc(F)cc1` (stereo not drawn), the TGI was over 100 µM.

For the compound `Cn1c(=S)[nH]c2sc3c(c2c1=O)CCSC3`, the TGI was over 100 µM.

Turning to `O=C(/C=C/c1ccccc1)/C=N/N1C(=S)N(c2ccccc2)C(=Nc2ccccc2)C1=Nc1ccccc1`, the TGI is over 100 µM.

For another assay, the system named is LOX IMVI melanoma. Nature of the assay: inhibition of tumour cell growth, NCI panel, 48 h.
As to `CCCCCCCCCCCC(=O)Oc1c(Cl)cc(Cl)c(OC(=O)C(=O)Oc2c(Cl)cc(Cl)c(OC(=O)CCCCCCCCCCC)c2Cl)c1Cl`, the TGI is over 100 µM.

On to `CC(NNC(=O)c1ccncc1)c1ccc(F)cc1` (stereo not drawn), for which the TGI was over 100 µM.

For `Cn1c(=S)[nH]c2sc3c(c2c1=O)CCSC3`, the TGI was over 100 µM.

The test system of the next assay is M14 melanoma. Nature of the assay: inhibition of tumour cell growth, NCI panel, 48 h.
For the compound `CC(NNC(=O)c1ccncc1)c1ccc(F)cc1` (stereo not drawn), the TGI was over 100 µM.

In turn, `Cn1c(=S)[nH]c2sc3c(c2c1=O)CCSC3` registered a TGI of over 100 µM.

In turn, `O=C(/C=C/c1ccccc1)/C=N/N1C(=S)N(c2ccccc2)C(=Nc2ccccc2)C1=Nc1ccccc1` registered a TGI of over 100 µM.

For a further assay, the system named is MALME-3M melanoma. Nature of the assay: inhibition of tumour cell growth, NCI panel, 48 h.
For `CCCCCCCCCCCC(=O)Oc1c(Cl)cc(Cl)c(OC(=O)C(=O)Oc2c(Cl)cc(Cl)c(OC(=O)CCCCCCCCCCC)c2Cl)c1Cl`, the TGI is over 100 µM.

`CC(NNC(=O)c1ccncc1)c1ccc(F)cc1` (stereo not drawn) came in with a TGI of over 100 µM.

Take `Cn1c(=S)[nH]c2sc3c(c2c1=O)CCSC3`: the TGI is over 100 µM.

In the case of `O=C(/C=C/c1ccccc1)/C=N/N1C(=S)N(c2ccccc2)C(=Nc2ccccc2)C1=Nc1ccccc1`, the TGI was over 100 µM.

The subject of the next assay is MCF7 breast. Nature of the assay: inhibition of tumour cell growth, NCI panel, 48 h.
Compound `CCCCCCCCCCCC(=O)Oc1c(Cl)cc(Cl)c(OC(=O)C(=O)Oc2c(Cl)cc(Cl)c(OC(=O)CCCCCCCCCCC)c2Cl)c1Cl` yielded a TGI of over 100 µM.

The compound `CC(NNC(=O)c1ccncc1)c1ccc(F)cc1` (stereo not drawn) registered a TGI of over 100 µM.

As to `Cn1c(=S)[nH]c2sc3c(c2c1=O)CCSC3`, the TGI was over 100 µM.

As for `O=C(/C=C/c1ccccc1)/C=N/N1C(=S)N(c2ccccc2)C(=Nc2ccccc2)C1=Nc1ccccc1`, the TGI was over 100 µM.

For another assay, the system named is MDA-MB-231 breast. The assay can be described thus: inhibition of tumour cell growth, NCI panel, 48 h.
As for `CC(NNC(=O)c1ccncc1)c1ccc(F)cc1` (stereo not drawn), the TGI was over 100 µM.

As to `Cn1c(=S)[nH]c2sc3c(c2c1=O)CCSC3`, the TGI was over 100 µM.

For `O=C(/C=C/c1ccccc1)/C=N/N1C(=S)N(c2ccccc2)C(=Nc2ccccc2)C1=Nc1ccccc1`, the TGI is over 100 µM.

The next assay concerns MDA-MB-435. The assay can be described thus: inhibition of tumour cell growth, NCI panel, 48 h.
In turn, `CCCCCCCCCCCC(=O)Oc1c(Cl)cc(Cl)c(OC(=O)C(=O)Oc2c(Cl)cc(Cl)c(OC(=O)CCCCCCCCCCC)c2Cl)c1Cl` returned a TGI of over 100 µM.

Compound `CC(NNC(=O)c1ccncc1)c1ccc(F)cc1` (stereo not drawn) registered a TGI of over 100 µM.

As for `Cn1c(=S)[nH]c2sc3c(c2c1=O)CCSC3`, the TGI was over 100 µM.

In the next assay the test system is MDA-N. The assay can be described thus: inhibition of tumour cell growth, NCI panel, 48 h.
In turn, `CCCCCCCCCCCC(=O)Oc1c(Cl)cc(Cl)c(OC(=O)C(=O)Oc2c(Cl)cc(Cl)c(OC(=O)CCCCCCCCCCC)c2Cl)c1Cl` returned a TGI of over 100 µM.

The compound `CC(NNC(=O)c1ccncc1)c1ccc(F)cc1` (stereo not drawn) came in with a TGI of over 100 µM.

For `Cn1c(=S)[nH]c2sc3c(c2c1=O)CCSC3`, the TGI is over 100 µM.

As to `O=C(/C=C/c1ccccc1)/C=N/N1C(=S)N(c2ccccc2)C(=Nc2ccccc2)C1=Nc1ccccc1`, the TGI was over 100 µM.

The test system of a further assay is MOLT-4 leukemia. The assay can be described thus: inhibition of tumour cell growth, NCI panel, 48 h.
Compound `CCCCCCCCCCCC(=O)Oc1c(Cl)cc(Cl)c(OC(=O)C(=O)Oc2c(Cl)cc(Cl)c(OC(=O)CCCCCCCCCCC)c2Cl)c1Cl` returned a TGI of over 100 µM.

`CC(NNC(=O)c1ccncc1)c1ccc(F)cc1` (stereo not drawn) registered a TGI of over 100 µM.

As for `Cn1c(=S)[nH]c2sc3c(c2c1=O)CCSC3`, the TGI was over 100 µM.

`O=C(/C=C/c1ccccc1)/C=N/N1C(=S)N(c2ccccc2)C(=Nc2ccccc2)C1=Nc1ccccc1` yielded a TGI of over 100 µM.

The subject of the next assay is NCI-H226 lung. Nature of the assay: inhibition of tumour cell growth, NCI panel, 48 h.
`CC(NNC(=O)c1ccncc1)c1ccc(F)cc1` (stereo not drawn) had a TGI of over 100 µM.

`Cn1c(=S)[nH]c2sc3c(c2c1=O)CCSC3`: the TGI came to 88.6 µM.

In turn, `O=C(/C=C/c1ccccc1)/C=N/N1C(=S)N(c2ccccc2)C(=Nc2ccccc2)C1=Nc1ccccc1` gave a TGI of over 100 µM.

Values taken from PubChem BioAssay (NCI).
